Experimental data from US8486927B2 (Thar Pharmaceuticals, priority 2007, dated 2013).

What was measured:
[1] = In-vivo absorption test in rats, oral gavage, lamotrigine in blood serum by HPLC-UV; parameters: species or system Rats Sprague-Dawley; details: for Plasma concentration of lamotrigine in rats: rats (N = 5), oral gavage, 10 mg/kg as lamotrigine
Protocol: Rats historically have been used in safety evaluation and PK screening studies and are recommended by appropriate regulatory agencies.
Dose preparation; dose is prepared and suspended in 1 ml of 5% PEG 400 with 95% methylcellulose solution (weight percentage); methylcellulose solution is prepared by dissolving 0.5% methylcellulose in water (weight percentage).
The machine was operated by Total Chrome Workstation (Perkin Elmer Instruments LLC).

[2] = cited from earlier work
[3] = Sprague-Dawley, rat, plasma, po, 10 mg/kg

| Compound | Plasma concentration of lamotrigine in rats ([1]; time 0 hrs) | Plasma concentration of lamotrigine in rats ([1]; time 0.5 hrs) | Plasma concentration of lamotrigine in rats ([1]; time 1 hrs) | Plasma concentration of lamotrigine in rats ([1]; time 2 hrs) | Plasma concentration of lamotrigine in rats ([1]; time 3 hrs) | Plasma concentration of lamotrigine in rats ([1]; time 4 hrs) | Plasma concentration of lamotrigine in rats ([1]; time 8 hrs) | Plasma concentration of lamotrigine in rats ([1]; time 12 hrs) | Plasma concentration of lamotrigine in rats ([1]; time 24 hrs) | extent of absorption, solid versus solution ([2]; drug delivered as a solid or as a solution) | extent of absorption by site of delivery ([2]; drug delivered to any point in the gastrointestinal tract between the stomach and the ascending colon) | concentration at 0 h [1, 3] | concentration at 0.5 h [1, 3] | concentration at 1 h [1, 3] | concentration at 2 h [1, 3] | concentration at 3 h [1, 3] | concentration at 4 h [1, 3] | concentration at 8 h [1, 3] | concentration at 12 h [1, 3] | concentration at 24 h [1, 3] |
| --- | --- | --- | --- | --- | --- | --- | --- | --- | --- | --- | --- | --- | --- | --- | --- | --- | --- | --- | --- | --- |
| NC(=O)c1cccnc1.Nc1nnc(-c2cccc(Cl)c2Cl)c(N)n1 [Cocrystal 2] | 0 ng/mL | 1184 ng/mL | 1561 ng/mL | 1605 ng/mL | 1757 ng/mL | 1609 ng/mL | 1823 ng/mL | 1840 ng/mL | 971.8 ng/mL |  |  |  |  |  |  |  |  |  |  |  |
| Nc1nnc(-c2cccc(Cl)c2Cl)c(N)n1 [Lamotrigine, 6-(2,3-dichlorophenyl)-1,2,4-triazine-3,5-diamine] |  |  |  |  |  |  |  |  |  | similar | consistent | 0 ng/mL | 1590 ng/mL | 2240 ng/mL | 2370 ng/mL | 2420 ng/mL | 2480 ng/mL | 2680 ng/mL | 2860 ng/mL | 2130 ng/mL |
